These results are taken from publication PMC9867837 (Cancer letters, 2022).

Series [1] is described as follows: Mouse liver microsome stability. The series is classed as in vitro ADME. The conditions noted are these: liver microsomes, read-out: Metabolic Stability MLM t1/2. As to the method: Solubility, human (HLM) and mouse liver microsomal (MLM), and plasma stability studies were performed by Eurofins Cerep Panlabs and Eurofin Discovery Services (www.eurofins.com/PharmaDiscovery), while protein binding studies were performed by Sanford Burnham Prebys Chemical Biology & Drug Discovery Core using standard protocols.
(Liver microsomes are a subcellular fraction often used to study metabolism.)

The next series deals with T1, pYStat3C328A (Homo sapiens, UniProt P40763, C328A).
T1 construct: made in house; host or cells: E. coli BL21(DE3) TKB1 (inducible tyrosine kinase)
T1 sequence (P40763 127-711 C328A): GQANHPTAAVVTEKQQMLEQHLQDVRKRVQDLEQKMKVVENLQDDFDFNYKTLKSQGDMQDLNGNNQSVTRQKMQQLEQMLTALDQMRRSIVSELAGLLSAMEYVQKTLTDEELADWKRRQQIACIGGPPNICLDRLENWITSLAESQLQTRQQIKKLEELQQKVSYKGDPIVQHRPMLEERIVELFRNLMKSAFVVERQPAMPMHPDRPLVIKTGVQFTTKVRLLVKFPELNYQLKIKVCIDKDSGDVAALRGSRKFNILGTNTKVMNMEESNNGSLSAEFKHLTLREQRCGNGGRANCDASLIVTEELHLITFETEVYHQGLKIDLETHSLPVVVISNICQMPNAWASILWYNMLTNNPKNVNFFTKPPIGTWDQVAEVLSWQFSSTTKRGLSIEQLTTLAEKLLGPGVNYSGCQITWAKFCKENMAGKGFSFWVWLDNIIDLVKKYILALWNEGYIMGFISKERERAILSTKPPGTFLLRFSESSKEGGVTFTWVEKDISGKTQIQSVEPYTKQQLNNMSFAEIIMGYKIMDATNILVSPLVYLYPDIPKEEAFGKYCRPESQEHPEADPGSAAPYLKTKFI
The experiment in a line: EMSA with purified mutant pYStat3C328A. The series is classed as biochemical. The conditions noted are these: 3 μM H182, 30 min. An excerpt:
This construct was used to generate the mutants, Stat3C328A, Stat3C426A, Stat3C468A, and Stat3C542S, as described in detail in Supplementary Information “Methods”.
The expression of un-phosphorylated and tyrosine phosphorylated His-tagged recombinant wtStat3 and mutant Stat3 proteins in BL21 (DE3) bacterial cells is described in detail in Supplementary Information “Methods”.
Given the MS data, we conducted site-directed mutagenesis analysis for the effects of Cys mutations (Cys-to-Ala or Cys-to-Ser mutations) on the inhibitory activities or potencies of the compounds. […]
In another case, the nuclear extract was pre-incubated with the radiolabeled probe for 30 min at 30 °C prior to incubation with increasing concentration of H182 at room temperature for 30 min and subjecting to EMSA analysis. Bands corresponding to Stats DNA- binding activities were scanned and quantified using ImageJ and plotted as a percentage of control (vehicle) against the concentration of the inhibitor, from which the IC50 values were derived . […]
These studies were performed as previously reported using the v-Src -transformed NIH3T3/v-Src fibroblasts [1 -5] . […] Luciferase activity was normalized to total protein concentration of cell lysate, which was determined by Bradford assay (Bio-Rad, Hercules, CA) . […]

The target in series [2] is T2, purified recombinant Stat3 (rStat3) (Homo sapiens, UniProt P40763).
T2 construct: made in house; host or cells: E. coli BL21(DE3)
T2 sequence (P40763 127-711): as the sequence (P40763 127-711 C328A) above, with A202C counted along it
The experiment in a line: Isothermal titration calorimetry (ITC). The series is classed as binding. As to the method:
The ITC experiment was carried out as previously described. Details are provided in Supplementary Information, “Methods”. […]
1.2.10. Isothermal titration calorimetry (ITC)
The ITC experiment was carried out as previously described with some modification using Malvern Panalytical MicroCal PEAQ-ITC (United Kingdom). Studies were done at 25 °C. Briefly, H182, previously suspended in 100 % DMSO were diluted in 20 mM HEPES, 150 mM KCl buffer so the final DMSO was 5 %. To avoid buffer mismatch, Stat3 in HEPES buffer was diluted in HEPES buffer with 5% DMSO final concentration. Three hundred microliter (300 μL) aliquots of 3.0 μM Stat3 w ere placed in the cell and titrated with 250 μM H182. Titrations took place by injecting 2 μL H182 in a 2.5 min injection for the titration peak to return to the baseline. The K D was calculated using the MicroCal PEAQ-ITC analysis […]
software and Prism GraphPad software (San Diego, CA), using the one-site model. Control experiments were carried out by titration H182 into buffer, buffer into Stat3, and buffer into buffer. […]
DMSO (control) was added, and then immediately, cells were imaged with a Canon Powershot A640 digital camera under a phase contrast with the Zeiss Axiovert 200 inverted microscope at 10X magnification and noted as the zero time-point. Following culture for 22 h to allow cells to migrate into the denuded area, the culture was then imaged again at the same field that was marked on the plate.
1.2.12. Annexin V binding/apoptosis and flow cytometric analysis
For apoptosis analysis, annexin V/propidium iodide (PI) staining was performed. Briefly, cells in culture and untreated (DMSO, control) or treated with H182 were harvested and stained with FITC -annexin V (Apoptosis Detection Kit), according to manufacturer’s instructions (BD Biosciences, San Jose, CA). […]
1.2.13. Assessment of Physicochemical Properties
Solubility, human (HLM) and mouse liver microsomal (MLM), and plasma stability studies were performed by Eurofins Cerep Panlabs and Eurofin Discovery Services (www.eurofins.com/PharmaDiscovery), while
On the technique in general: ITC needs no label: the signal is the heat of the interaction.

Bounds are passed on as bounds.

A word on the Kd: it is the concentration at which binding is half-saturated. Regarding `O=C([C@H]1CCN1S(=O)(=O)c1c(F)c(F)c(F)c(F)c1F)N(Cc1ccc(C2CCCCC2)cn1)c1ccc2c(=O)[nH]ncc2c1` [Compound H182], the half-life in series [1] is above 2.5 h. Moreover, at pYStat3C328A, the “Effect on DNA-binding activity of pYStat3C328A” value was “strong inhibition”. In addition, in series [2], the ΔG is -7.79 kcal/mol, the ΔH is -4.16 kcal/mol and the “−TΔS” value is -3.63 kcal/mol. Further, the Kd in series [2] (one-site model, 25 °C) was determined as 1970 nM.
